Source: PubChem BioAssay (NCI)
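Grown in 96-well plates, cells were treated for 48 hours with each compound at five concentrations. Insufficient inhibition: endpoint recorded as highest concentration tested. TGI denotes the concentration required for complete inhibition of growth.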

How the values were obtained:
Test in all cases: DTP human tumour cell line panel, 48 h
[1] = system: HCT-116 colon
[2] = system: ACHN renal
[3] = system: SF-539 CNS
[4] = system: SK-MEL-2 melanoma
[5] = system: SF-295 CNS
[6] = system: UACC-257 melanoma
[7] = system: M14 melanoma
[8] = system: RXF 393 renal
[9] = system: SK-OV-3 ovarian
[10] = system: IGROV1 ovarian
[11] = system: CAKI-1 renal
[12] = system: HL-60(TB) leukemia
[13] = system: RPMI-8226 leukemia
[14] = system: UACC-62 melanoma
[15] = system: NCI-H522 lung
[16] = system: DU-145 prostate
[17] = system: HOP-92 NSCLC
[18] = system: LOX IMVI melanoma
[19] = system: KM12 colon
[20] = system: UO-31 renal
[21] = system: OVCAR-5 ovarian
[22] = system: CCRF-CEM leukemia
[23] = system: SNB-75 CNS
[24] = system: OVCAR-3 ovarian
[25] = system: OVCAR-4 ovarian
[26] = system: HCT-15 colon
[27] = system: U251 CNS
[28] = system: K-562 leukemia
[29] = system: SW-620 colon
[30] = system: TK-10 renal
[31] = system: HOP-62 NSCLC
[32] = system: T-47D breast
[33] = system: A549 NSCLC
[34] = system: MALME-3M melanoma
[35] = system: MDA-MB-231 breast
[36] = system: NCI/ADR-RES ovarian
[37] = system: EKVX NSCLC
[38] = system: SNB-19 CNS
[39] = system: SF-268 CNS
[40] = system: MCF7 breast
[41] = system: OVCAR-8 ovarian
[42] = system: SR leukemia
[43] = system: HCC-2998 colon
[44] = system: COLO 205 colon
[45] = system: PC-3 prostate
[46] = system: BT-549 breast
[47] = system: HS 578T breast
[48] = system: MOLT-4 leukemia
[49] = system: MDA-N
[50] = system: SK-MEL-5 melanoma
[51] = system: NCI-H23 lung
[52] = system: NCI-H460 lung
[53] = system: SK-MEL-28 melanoma
[54] = system: A498 renal
[55] = system: HT29 colon
[56] = system: MDA-MB-435
[57] = system: NCI-H226 lung
[58] = system: SN12C renal
[59] = system: 786-0 renal
[60] = system: DMS 273 small cell lung
[61] = system: HOP-18 NSCLC
[62] = system: DMS 114 small cell lung
[63] = system: SNB-78 CNS
[64] = system: M19-MEL melanoma
[65] = system: DLD-1 colon
[66] = system: KM20L2 colon
[67] = system: LXFL 529 NSCLC

`OCCN(CCO)c1ccc2c(C(F)(F)F)cc(C(F)(F)F)nc2n1` gave a TGI [1] of over 100 µM, a TGI [2] of over 100 µM and a TGI [3] of over 100 µM. For the same molecule, the TGI [4] was over 100 µM, the TGI [5] was over 100 µM and the TGI [6] was over 100 µM. For the same molecule, the TGI [7] was over 100 µM, the TGI [8] was over 100 µM and the TGI [9] was over 100 µM. The TGI [10] was over 100 µM, the TGI [11] was over 100 µM and the TGI [12] was over 100 µM. The TGI [13] was over 100 µM, the TGI [14] was over 100 µM and the TGI [15] was over 100 µM. The TGI [16] was over 100 µM, the TGI [17] was over 100 µM and the TGI [18] was over 100 µM. For the same molecule, the TGI [19] was over 100 µM, the TGI [20] was over 100 µM and the TGI [21] was over 100 µM. The TGI [22] was over 100 µM, the TGI [23] was over 100 µM and the TGI [24] was over 100 µM. For the same molecule, the TGI [25] was over 100 µM, the TGI [26] was over 100 µM and the TGI [27] was over 100 µM. The TGI [28] was over 100 µM, the TGI [29] was over 100 µM and the TGI [30] was over 100 µM. For the same molecule, the TGI [31] was over 100 µM, the TGI [32] was over 100 µM and the TGI [33] was over 100 µM. The TGI [34] was over 100 µM, the TGI [35] was over 100 µM and the TGI [36] was over 100 µM. The TGI [37] was over 100 µM, the TGI [38] was over 100 µM and the TGI [39] was over 100 µM. For the same molecule, the TGI [40] was over 100 µM, the TGI [41] was over 100 µM and the TGI [42] was over 100 µM. It also gave a TGI [43] of over 100 µM, a TGI [44] of over 100 µM and a TGI [45] of over 100 µM. The TGI [46] was over 100 µM, the TGI [47] was over 100 µM and the TGI [48] was over 100 µM. The TGI [49] was over 100 µM, the TGI [50] was over 100 µM and the TGI [51] was over 100 µM. For the same molecule, the TGI [52] was over 100 µM, the TGI [53] was over 100 µM and the TGI [54] was over 100 µM. For the same molecule, the TGI [55] was over 100 µM, the TGI [56] was over 100 µM and the TGI [57] was over 100 µM. It also gave a TGI [58] of over 100 µM and a TGI [59] of over 100 µM.
For `O=C(CSc1nc(=O)[nH]c2nc[nH]c12)Nc1ccccc1`, the TGI [1] was over 100 µM, the TGI [2] was over 100 µM and the TGI [3] was 88.1 µM. For the same molecule, the TGI [4] was over 100 µM, the TGI [5] was over 100 µM and the TGI [6] was over 100 µM. For the same molecule, the TGI [7] was over 100 µM, the TGI [8] was over 100 µM and the TGI [9] was over 100 µM. The TGI [10] was over 100 µM, the TGI [11] was over 100 µM and the TGI [12] was over 100 µM. The TGI [13] was over 100 µM, the TGI [14] was over 100 µM and the TGI [15] was over 100 µM. The TGI [16] was over 100 µM, the TGI [17] was over 100 µM and the TGI [18] was over 100 µM. The TGI [19] was over 100 µM, the TGI [20] was over 100 µM and the TGI [21] was over 100 µM. The TGI [22] was over 100 µM, the TGI [23] was over 100 µM and the TGI [24] was over 100 µM. The TGI [25] was over 100 µM, the TGI [26] was over 100 µM and the TGI [27] was over 100 µM. For the same molecule, the TGI [28] was over 100 µM, the TGI [29] was over 100 µM and the TGI [30] was over 100 µM. The TGI [31] was over 100 µM, the TGI [32] was over 100 µM and the TGI [33] was over 100 µM. For the same molecule, the TGI [34] was over 100 µM, the TGI [35] was over 100 µM and the TGI [36] was over 100 µM. For the same molecule, the TGI [37] was over 100 µM, the TGI [38] was over 100 µM and the TGI [39] was over 100 µM. It also gave a TGI [40] of over 100 µM, a TGI [41] of over 100 µM and a TGI [42] of over 100 µM. It also gave a TGI [43] of over 100 µM, a TGI [44] of over 100 µM and a TGI [45] of over 100 µM. It also gave a TGI [46] of over 100 µM, a TGI [47] of over 100 µM and a TGI [48] of over 100 µM. The TGI [49] was over 100 µM, the TGI [50] was over 100 µM and the TGI [51] was over 100 µM. For the same molecule, the TGI [52] was over 100 µM, the TGI [53] was over 100 µM and the TGI [54] was over 100 µM. It also gave a TGI [55] of over 100 µM, a TGI [56] of over 100 µM and a TGI [57] of over 100 µM. The TGI [58] was over 100 µM and the TGI [59] was over 100 µM.
`NC(=O)CCC(NCc1c2ccccc2[n+]([O-])c2ccccc12)C(=O)O` (stereo unspecified) showed a TGI [1] of over 100 µM, a TGI [2] of over 100 µM and a TGI [4] of over 100 µM. The TGI [5] was over 100 µM, the TGI [60] was over 100 µM and the TGI [6] was over 100 µM. It also gave a TGI [7] of over 100 µM, a TGI [9] of over 100 µM and a TGI [10] of over 100 µM. It also gave a TGI [61] of over 100 µM, a TGI [62] of over 100 µM and a TGI [11] of over 100 µM. The TGI [12] was 74.1 µM, the TGI [13] was over 100 µM and the TGI [14] was over 100 µM. For the same molecule, the TGI [63] was over 100 µM, the TGI [15] was over 100 µM and the TGI [18] was over 100 µM. For the same molecule, the TGI [64] was over 100 µM, the TGI [19] was over 100 µM and the TGI [20] was over 100 µM. It also gave a TGI [21] of over 100 µM, a TGI [22] of over 100 µM and a TGI [23] of over 100 µM. It also gave a TGI [24] of over 100 µM, a TGI [25] of over 100 µM and a TGI [26] of over 100 µM. For the same molecule, the TGI [27] was over 100 µM, the TGI [28] was over 100 µM and the TGI [29] was over 100 µM. It also gave a TGI [30] of over 100 µM, a TGI [31] of over 100 µM and a TGI [33] of over 100 µM. The TGI [34] was over 100 µM, the TGI [37] was over 100 µM and the TGI [38] was over 100 µM. For the same molecule, the TGI [39] was over 100 µM, the TGI [41] was over 100 µM and the TGI [65] was over 100 µM. It also gave a TGI [43] of over 100 µM, a TGI [44] of over 100 µM and a TGI [48] of over 100 µM. For the same molecule, the TGI [50] was over 100 µM, the TGI [66] was over 100 µM and the TGI [51] was over 100 µM. The TGI [52] was over 100 µM, the TGI [67] was over 100 µM and the TGI [53] was over 100 µM. It also gave a TGI [54] of over 100 µM, a TGI [55] of over 100 µM and a TGI [57] of over 100 µM. For the same molecule, the TGI [58] was over 100 µM and the TGI [59] was over 100 µM.
